# Results reported in publication PMC7785020, “A unique hormonal recognition feature of the human glucagon-like peptide-2 receptor” (Cell Research, 2020).
# Residue numbers refer to the chain shown, from its start. No end group written: not given here.
# Columns and labels:
# GLP-2R (1-553) (WT) = molecular target: T1, GLP-2R (1-553) (WT) (Homo sapiens, UniProt O95838); test: cAMP accumulation, WT GLP-2R; type: cell-based; settings: 30 min, RT, mean ± SEM, n ≥ 3 in duplicate; for Emax: HEK-293T; for EC50: HEK 293T, read-out: cAMP pEC50 (converted)
# T1 construct: GLP-2R (1-553) (WT); expressed in transfected cells; host or cells: HEK 293T
# T1 sequence (O95838 1-553): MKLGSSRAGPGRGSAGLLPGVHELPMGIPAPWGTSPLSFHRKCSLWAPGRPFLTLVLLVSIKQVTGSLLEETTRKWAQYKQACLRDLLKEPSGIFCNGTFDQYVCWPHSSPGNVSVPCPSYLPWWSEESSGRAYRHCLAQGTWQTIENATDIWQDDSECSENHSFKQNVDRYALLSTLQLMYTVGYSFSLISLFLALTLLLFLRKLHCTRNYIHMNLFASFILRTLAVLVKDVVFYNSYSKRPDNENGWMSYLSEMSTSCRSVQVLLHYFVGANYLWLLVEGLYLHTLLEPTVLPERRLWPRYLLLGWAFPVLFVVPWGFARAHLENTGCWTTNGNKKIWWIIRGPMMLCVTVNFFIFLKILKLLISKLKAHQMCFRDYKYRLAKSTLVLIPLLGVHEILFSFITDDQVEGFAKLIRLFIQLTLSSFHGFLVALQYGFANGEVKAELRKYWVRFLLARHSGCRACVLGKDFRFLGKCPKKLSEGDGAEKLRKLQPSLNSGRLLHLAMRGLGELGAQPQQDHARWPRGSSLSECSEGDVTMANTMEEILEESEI
# Experimental: HEK 293T cells were cultured in Dulbecco’s Modified Eagle’s Medium (DMEM) (Gibco, Waltham, USA) supplemented with 10% (v/v) fetal bovine serum (FBS) (Gibco) and 1% (v/v) sodium pyruvate (Gibco) at 37 °C, 5% CO2 in a humidified incubator. They were seeded onto 6-well cell culture plates and transiently transfected with different GLP-2R constructs using Lipofectamine 2000 transfection reagent (Invitrogen, Carlsbad, CA, USA). After 24 h, the transfected cells were seeded onto 384-well microtiter plates (3000 cells per well) in HBSS supplemented with 5 mM HEPES, 0.1% (w/v) bovine serum albumin (BSA) and 0.5 mM 3-isobutyl-1- methylxanthine, and stimulated with increasing concentrations of GLP-2 for 30 min at RT. Eu and Ulight were diluted by cAMP detection buffer and added to the plates separately to terminate the reaction. Plates were incubated at RT for 60 min before measuring the fluorescence intensity at 620 nm and […] by an EnVision multilabel plate reader (PerkinElmer, Boston, USA).
# GLP-2R N247^ECL1A = molecular target: T2, GLP-2R N247^ECL1A (Homo sapiens, UniProt O95838, N247A); test: radioligand competition binding, N247^ECL1A; design: WT (1–553); expressed in transfected cells; settings: COS-7, N247^ECL1A; [^125I]GLP-2(1–33, M10Y) 10–15 pM, 4 h, 4 °C; mean ± SEM, n ≥ 3 in duplicate
# T2 sequence (O95838 1-553 N247A): T1 sequence (O95838 1-553) with N247A
# Experimental: A stepwise oxidation reaction was performed by addition of 6 aliquots of 5 µL ChloramineT (30 µL/mL) with a 1-min interval during constant stirring. The reaction was terminated by the addition of 400 µL phase A (0.1% trifluoracetic acid) before being fractionated into 1 mL volume by reverse-phase high-performance liquid chromatography (RP-HPLC, Waters 600 SimiPrep system) on a C18 column. The iodinated protein was […] by increasing concentrations of phase B (Acetonitrile + 0.1% TFA) and tested for competitive binding ability.
# One day before transfection, the COS-7 cells were seeded in 75 cm^2 culture flasks (3 million cells/flask) in DMEM, containing 3.9 g/L NaHCO3 and supplemented with 10% FBS, 1% L-glutamine, 180 units/mL penicillin and 45 µg/mL streptomycin. After an overnight culture at 37 °C, 10% CO2 and 95% air humidity, the cells were transiently transfected with different GLP-2R constructs or pcDNA3.1 vector as previously described.[52] Following 24-h incubation, the cells were transferred to Costa® microtiter plates (150,000 cells/well, PerkinElmer) to achieve a 5%–10% specific binding. […] The cells were then washed twice in binding buffer (4 °C), lysed and counted for radioactivity using a Wallac Gamma Counter (PerkinElmer).
molecule,measurement,setting,value
HADGSFTSDVSSYLEGQAARDFINWLIQTKITD [Chimeric GLP-1/GLP-2 (7-19)],Emax,"GLP-2R (1-553) (WT); Table S5, GLP-2R (WT)",103 ± 2.6%
same,EC50,"GLP-2R (1-553) (WT); Table S5, GLP-2R (WT)",3.16 nM
HADGSFSDEMNTILDNLAAKEFIAWLVKGRG [Chimeric GLP-1/GLP-2 (20-33)],Emax,"GLP-2R (1-553) (WT); Table S5, GLP-2R (WT)",104 ± 1.5%
same,EC50,"GLP-2R (1-553) (WT); Table S5, GLP-2R (WT)",0.126 nM
HAEGTFSDEMNTILDNLAARDFINWLIQTKITD [Chimeric GLP-1/GLP-2 (1-6)],Emax,"GLP-2R (1-553) (WT); Table S5, GLP-2R (WT)",103 ± 1.8%
same,EC50,"GLP-2R (1-553) (WT); Table S5, GLP-2R (WT)",0.158 nM
CC[C@H](C)[C@H](NC(=O)[C@H](Cc1ccccc1)NC(=O)[C@H](CC(=O)O)NC(=O)[C@H](CCCNC(=N)N)NC(=O)[C@H](C)NC(=O)[C@H](C)NC(=O)[C@H](CC(C)C)NC(=O)[C@H](CC(N)=O)NC(=O)[C@H](CC(=O)O)NC(=O)[C@H](CC(C)C)NC(=O)[C@@H](NC(=O)[C@@H](NC(=O)[C@H](CC(N)=O)NC(=O)[C@H](CCSC)NC(=O)[C@H](CCC(=O)O)NC(=O)[C@H](CC(=O)O)NC(=O)[C@H](CO)NC(=O)[C@H](Cc1ccccc1)NC(=O)[C@H](CO)NC(=O)CNC(=O)[C@H](CC(=O)O)NC(=O)[C@H](C)NC(=O)[C@@H](N)Cc1c[nH]cn1)[C@@H](C)O)[C@@H](C)CC)C(=O)N[C@@H](CC(N)=O)C(=O)N[C@@H](Cc1c[nH]c2ccccc12)C(=O)N[C@@H](CC(C)C)C(=O)N[C@H](C(=O)N[C@@H](CCC(N)=O)C(=O)N[C@H](C(=O)N[C@@H](CCCCN)C(=O)N[C@H](C(=O)N[C@H](C(=O)N[C@@H](CC(=O)O)C(=O)O)[C@@H](C)O)[C@@H](C)CC)[C@@H](C)O)[C@@H](C)CC [Human GLP-2 (1–33)],% Binding of WT,GLP-2R N247^ECL1A,130.7 ± 4.5 %
same,Emax,"GLP-2R (1-553) (WT); Table S3, WT",101 ± 2.4%
same,Emax,"GLP-2R (1-553) (WT); Table S4, WT",101 ± 2.9%
same,Emax,"GLP-2R (1-553) (WT); Table S5, GLP-2R (WT)",103 ± 1.6%
CC[C@H](C)[C@H](NC(=O)[C@H](Cc1ccccc1)NC(=O)[C@H](CC(=O)O)NC(=O)[C@H](CCCNC(=N)N)NC(=O)[C@H](C)NC(=O)[C@H](C)NC(=O)[C@H](CC(C)C)NC(=O)[C@H](CC(N)=O)NC(=O)[C@H](CC(=O)O)NC(=O)[C@H](CC(C)C)NC(=O)[C@@H](NC(=O)[C@@H](NC(=O)[C@H](CC(N)=O)NC(=O)[C@H](CCSC)NC(=O)[C@H](CCC(=O)O)NC(=O)[C@H](CC(=O)O)NC(=O)[C@H](CO)NC(=O)[C@H](Cc1ccccc1)NC(=O)[C@H](CO)NC(=O)CNC(=O)[C@H](CC(=O)O)NC(=O)CNC(=O)[C@@H](N)Cc1c[nH]cn1)[C@@H](C)O)[C@@H](C)CC)C(=O)N[C@@H](CC(N)=O)C(=O)N[C@@H](Cc1c[nH]c2ccccc12)C(=O)N[C@@H](CC(C)C)C(=O)N[C@H](C(=O)N[C@@H](CCC(N)=O)C(=O)N[C@H](C(=O)N[C@@H](CCCCN)C(=O)N[C@H](C(=O)N[C@H](C(=O)N[C@@H](CC(=O)O)C(=O)O)[C@@H](C)O)[C@@H](C)CC)[C@@H](C)O)[C@@H](C)CC [Teduglutide],% Binding of WT,GLP-2R N247^ECL1A,135.2 ± 4.4 %
